Measurements reported in patent publication US20230060350A1, “BACTERICIDAL COMPOSITION FOR CONTROLLING GUMMY STEM BLIGHT OF MELONS” (Institute of Plant Protection and Agro-products Safety, …, priority 2022, published 2023).

Columns and labels:
[1] = system: gummy stem blight of the watermelon; assay: Greenhouse control experiment on gummy stem blight of watermelon; type: in vivo
Description: Embodiment 4: Field Control Experiment of Pydiflumetofen and the Thifluzamide on Gummy Stem Blight of Watermelon Control tests of gummy stem blight of watermelons were respectively conducted in 2020 and 2021. Test data in 2021 were collected as follows: the 18% Pydiflumetofen·Thifluzamide water dispersible granules, 20% Pydiflumetofen suspension, 30% Thifluzamide suspension and 25% Azoxystrobin suspension in embodiment 1 were respectively used in the experiment. The variety of the tested watermelon was “Zaojia 8424”; the test location was a watermelon greenhouse in Gangji experimental production base in Anhui Academy of Agricultural Sciences; water consumption per mu was 30 kg; the watermelons were subjected to agent control for the first time within 30 days after field planting of watermelon seedlings, and then subjected to agent control for the second time within 10 days after the first control; and disease condition survey was conducted within 30 days after the second agent control (Table 3).

[2] = system: gummy stem blight of Trichosanthes kirilowii maxim; assay: Field control experiment on gummy stem blight of Trichosanthes kirilowii maxim; type: in vivo
Description: Embodiment 3: Field Control Experiment of Pydiflumetofen and the Thifluzamide on Gummy Stem Blight of Trichosanthes kirilowii maxim
Control tests of gummy stem blight of Trichosanthes kirilowii maxim were respectively conducted in 2020 and 2021. Test data in 2021 were collected as follows: the 20% Pydiflumetofen·Thifluzamide suspension, 20% Pydiflumetofen suspension, 30% Thifluzamide suspension and 25% Azoxystrobin suspension in embodiment 2 were respectively used in the experiment. The variety of the tested Trichosanthes kirilowii maxim was “Wanlou 9”; the test location was a Trichosanthes kirilowii maxim field in Gangji experimental production base in Anhui Academy of Agricultural Sciences; water consumption per mu was 30 kg; the Trichosanthes kirilowii maxim was subjected to agent control at an early stage of growing and flowering (May 20); and disease condition survey was conducted within 30 days (Table 2).

[3] = system: Stagonosporopsis cucurbitacearum; assay: Indoor toxicity test, hypha growth assay on drug-containing PDA plates; type: cell-based; conditions: hypha growth inhibition, 25° C.
Protocol: Embodiment 1 Indoor toxicity test of Pydiflumetofen and the Thifluzamide on Stagonosporopsis cucurbitacearum
Bactericidal properties of the Pydiflumetofen and the Thifluzamide were analyzed in detail. EC50 […] of two single components such as the Pydiflumetofen and the Thifluzamide (hereinafter referred to as agents) was tested first; a combination ratio of the two agents was set by a Wadley method according to the EC50 of the two single agents, and according to a Wadley synergistic coefficient SR value.
A test object was Stagonosporopsis cucurbitacearum of melons, but was not limited herein. […] Hypha growth assay was adopted during the test; drug containing media were prepared according to different treatments; hypha blocks having a diameter of 5 mm were prepared on the edges of the pre-culture colonies by using the sterilized puncher and respectively transferred onto medium plates with different drug content; a colony diameter was tested by a crossing method; the colony diameter (mm) was measured; and a growth inhibition ratio was calculated by the following formula: […]
Interaction of the mixture was evaluated according to the Wadley method; and a calculation formula was as follows: […]
In the formula, a and b were content ratios of various components in the mixture; and a mixing effect was analyzed based on the value SR.

Row | SMILES | Control effect (in words) [1] | Control effect (in words) [2] | EC50 [3] [ppm]
1 | CON(C(=O)c1cn(C)nc1C(F)F)C(C)Cc1c(Cl)cc(Cl)cc1Cl (racemic) [Pydiflumetofen, 3-(difluoromethyl)-N-methoxy-1-methyl-N-[(RS)-1-methyl-2-(2,4,6-trichlorophenyl)ethyl]pyrazol-4-formamide] | significant control effects | significant control effects | 0.0109
2 | Cc1nc(C(F)(F)F)c(C(=O)Nc2c(Br)cc(OC(F)(F)F)cc2Br)s1 [Thifluzamide] | significant control effects | significant control effects | 0.0451
